In ChEMBL document CHEMBL4811260, “Isolation, synthesis and absolute configuration of 4,5-dihydroxypiperines improving behavioral disorder in AlCl3-induced dementia” (2021) one finds Activity data, which are given here for four compounds.

The source made the active and inactive calls. The calls are words filed in the database; no cut-off is given here.

Assay [1] is filed under the species Danio rerio. The assay can be described thus: Antialzheimer activity against AlCl3-induced dementia zebrafish model assessed as increase in dyskinesia recovery rate at 10 uM measured for 60 mins under alternating light and dark environment in presence of 150 uM of AlCl3 relative to control. Format: functional.
Assay [2] is filed under the species Danio rerio. The assay can be described thus: Antialzheimer activity against AlCl3-induced dementia zebrafish model assessed as increase in response efficiency at 10 uM measured for 60 mins under alternating light and dark environment in presence of 150 uM of AlCl3 relative to control. Format: functional.
For assay [3], the species on record is Danio rerio. The assay can be described thus: Antialzheimer activity against AlCl3-induced dementia zebrafish model assessed as increase in zebrafish movement speed change at 10 uM measured for 60 mins under alternating light and dark environment in presence of 150 uM of AlCl3. The assay is classed as functional, organism-based.
The species named for assay [4] is Danio rerio. In words: Antialzheimer activity against AlCl3-induced dementia zebrafish model assessed as increase in zebrafish movement speed at 10 uM measured for 60 mins under alternating light and dark environment in presence of 150 uM of AlCl3. The assay is classed as functional, organism-based.

With `O=C(/C=C/[C@@H](O)[C@H](O)c1ccc2c(c1)OCO2)N1CCCCC1`, the outcome in assay [1] and in assay [2] was inactive.
Regarding `O=C(/C=C/[C@H](O)[C@H](O)c1ccc2c(c1)OCO2)N1CCCCC1`, the outcome in assay [1] and in assay [2] was inactive.
Take `O=C(/C=C/[C@@H](O)[C@@H](O)c1ccc2c(c1)OCO2)N1CCCCC1`: the outcome in assay [3] and in assay [4] was Active. Besides, the results for the Activity in assay [1] (1 h) and in assay [2] (1 h) were 73.8% and 85.4%, respectively.
As to `O=C(/C=C/[C@H](O)[C@@H](O)c1ccc2c(c1)OCO2)N1CCCCC1`, the result in assay [1] and in assay [2] was inactive.
